Here are results for three compounds from patent publication US12157723B2, “Compounds” (CYBIN UK LTD, priority 2019, dated 2024).

Data set [1] in a line: Solubility of API in water (vessel cleaning note). It is filed as physicochemical.
The conditions of data set [2]: humans, 0.05 mg/kg to 0.4 mg/kg, bolus injections or infusions; cited from earlier work.
The conditions of data set [3]: cited from earlier work; for participants with psychiatric diagnoses whose symptoms improved following use: uncontrolled setting, self-report.
The conditions of data set [4]: without coadministration of a monoamine oxidase inhibitor; cited from earlier work.

Structures are written as SMILES. Read-outs that look alike come from different tables or passages of the source.

Take `CN(C)CCc1c[nH]c2ccccc12.O=C(O)/C=C/C(=O)O` [API, N,N-DMT fumarate]: the solubility in water entry in data set [1] is given as “API highly soluble”.
On to `CN(C)CCc1c[nH]c2ccccc12` [DMT (SPL026), N,N-dimethyltryptamine], for which the tolerability entry in data set [2] is given as “well-tolerated”.
`COc1ccc2[nH]cc(CCN(C)C)c2c1` [Mixture 5-MeO-DMT, 5-methoxy-N,N-dimethyltryptamine]: the “individuals reporting improvements in their conditions following use” value in data set [3] (alcoholism or hazardous drinking, n=75 out of 113) is given as 66%. For the same compound, the “participants with psychiatric diagnoses whose symptoms improved following use” value in data set [3] (anxiety) is 69%; in data set [3] (depression), 77%; in data set [3] (post-traumatic stress disorder), 79%. Further, the oral bioavailability entry in data set [4] is given as “not orally bioavailable”.
